Where two headings read alike, the source gives them in different places.
Experiments:
prostate line LNCap = test: In vitro cell culture growth assay (MTS), LNCap; type: cell-based; details: Homo sapiens, LNCaP, 72 h, LNCap cells, three days after drug treatment
Method in brief: (§1)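 Inhibitors were added one day after plating, and viable cells were measured 3 days later by MTS conversion (absorbance 490 nm).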

breast line MDA468 = test: In vitro cell culture growth assay (MTS), MDA468; type: cell-based; details: Homo sapiens, 72 h, MDA468 cells, three days after drug treatment
Method in brief: as §1

PI3K [1] = target: T1, PI3K (Homo sapiens, UniProt P48736); test: Fluorescence polarization assay for PI3K; type: biochemical; details: read-out: PI3 Kinase γ IC50
T1 construct: PI3 Kinase γ IC50; other: PI3 Kinase γ; other: PI3 Kinase γ isoform, fluorescence polarization
T1 sequence (P48736 whole entry, canonical isoform): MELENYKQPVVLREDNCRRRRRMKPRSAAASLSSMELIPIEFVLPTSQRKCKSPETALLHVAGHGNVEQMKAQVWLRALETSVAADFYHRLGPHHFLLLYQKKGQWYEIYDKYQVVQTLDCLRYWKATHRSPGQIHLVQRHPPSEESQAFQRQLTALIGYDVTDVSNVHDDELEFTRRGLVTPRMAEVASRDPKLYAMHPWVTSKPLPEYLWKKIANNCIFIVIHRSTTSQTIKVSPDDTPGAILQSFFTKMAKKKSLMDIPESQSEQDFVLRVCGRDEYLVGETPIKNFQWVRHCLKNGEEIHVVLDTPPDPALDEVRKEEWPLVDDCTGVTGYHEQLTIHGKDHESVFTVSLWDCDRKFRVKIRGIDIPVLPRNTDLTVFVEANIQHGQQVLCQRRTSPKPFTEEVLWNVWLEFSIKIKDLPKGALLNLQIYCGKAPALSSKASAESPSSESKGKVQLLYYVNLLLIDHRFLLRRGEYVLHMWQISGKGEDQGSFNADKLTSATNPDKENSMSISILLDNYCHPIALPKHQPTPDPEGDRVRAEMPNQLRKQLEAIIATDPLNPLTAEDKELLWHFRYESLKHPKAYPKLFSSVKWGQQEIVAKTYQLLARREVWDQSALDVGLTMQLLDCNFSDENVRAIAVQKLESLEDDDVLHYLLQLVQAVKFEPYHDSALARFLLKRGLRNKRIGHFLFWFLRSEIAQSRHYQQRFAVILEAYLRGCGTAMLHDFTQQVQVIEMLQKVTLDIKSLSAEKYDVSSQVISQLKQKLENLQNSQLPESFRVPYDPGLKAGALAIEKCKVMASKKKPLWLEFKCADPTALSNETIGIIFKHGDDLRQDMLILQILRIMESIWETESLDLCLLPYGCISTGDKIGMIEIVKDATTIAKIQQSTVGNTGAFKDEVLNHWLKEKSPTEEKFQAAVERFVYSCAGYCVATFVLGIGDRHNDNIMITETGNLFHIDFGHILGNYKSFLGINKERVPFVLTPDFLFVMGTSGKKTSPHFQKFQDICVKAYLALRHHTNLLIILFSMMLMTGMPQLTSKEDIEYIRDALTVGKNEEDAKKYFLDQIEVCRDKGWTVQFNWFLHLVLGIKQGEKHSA
Method in brief: (§2)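 Fluorescence-polarization competition readout: after 30–60 min of PIP2/ATP turnover in 1% DMSO, a stop mix with GST-GRP (70 nM) and red probe (10 nM) was added.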

PI3K [2] = target: T2, PI3K (Homo sapiens, UniProt P42336); test: Fluorescence polarization assay for PI3K; type: biochemical; details: read-out: PI3 Kinase α IC50
T2 construct: PI3 Kinase α IC50; other: PI3 Kinase α; other: PI3 Kinase α isoform, fluorescence polarization
T2 sequence (P42336 whole entry, canonical isoform): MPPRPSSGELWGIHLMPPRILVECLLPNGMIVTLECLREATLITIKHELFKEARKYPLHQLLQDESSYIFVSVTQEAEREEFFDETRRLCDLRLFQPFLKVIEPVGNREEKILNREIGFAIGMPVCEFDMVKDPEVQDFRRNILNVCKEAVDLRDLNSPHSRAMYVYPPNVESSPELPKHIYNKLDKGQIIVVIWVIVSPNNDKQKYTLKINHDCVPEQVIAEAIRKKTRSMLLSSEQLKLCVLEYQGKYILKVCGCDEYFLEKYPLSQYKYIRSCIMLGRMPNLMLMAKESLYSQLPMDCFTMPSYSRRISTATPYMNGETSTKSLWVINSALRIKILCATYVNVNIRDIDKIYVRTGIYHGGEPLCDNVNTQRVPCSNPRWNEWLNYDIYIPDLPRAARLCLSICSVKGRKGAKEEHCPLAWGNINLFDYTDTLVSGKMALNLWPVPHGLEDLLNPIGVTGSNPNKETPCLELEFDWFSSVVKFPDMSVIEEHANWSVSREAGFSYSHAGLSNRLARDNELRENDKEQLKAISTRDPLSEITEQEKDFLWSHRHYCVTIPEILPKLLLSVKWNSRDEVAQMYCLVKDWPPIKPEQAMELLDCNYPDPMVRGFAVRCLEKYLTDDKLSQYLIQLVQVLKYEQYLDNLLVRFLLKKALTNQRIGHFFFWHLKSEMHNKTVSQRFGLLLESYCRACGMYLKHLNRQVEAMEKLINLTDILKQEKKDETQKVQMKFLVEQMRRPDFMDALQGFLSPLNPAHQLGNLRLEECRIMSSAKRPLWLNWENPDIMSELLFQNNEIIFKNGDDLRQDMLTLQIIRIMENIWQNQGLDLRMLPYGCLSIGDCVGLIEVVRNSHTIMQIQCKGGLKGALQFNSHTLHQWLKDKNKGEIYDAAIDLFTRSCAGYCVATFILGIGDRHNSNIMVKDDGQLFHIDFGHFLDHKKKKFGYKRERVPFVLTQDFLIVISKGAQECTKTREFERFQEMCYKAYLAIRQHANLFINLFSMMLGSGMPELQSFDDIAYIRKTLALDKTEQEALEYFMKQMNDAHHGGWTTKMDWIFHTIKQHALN
Method in brief: as §2

Human mTOR (FLAG-TOR) = target: T3, Human mTOR (FLAG-TOR) (Homo sapiens, UniProt P42345); test: Human mTOR kinase assay with purified enzyme, DELFIA format; type: biochemical
T3 construct: FLAG
Method in brief: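 DELFIA readout: Eu-anti-P(T389)-S6K antibody (40 ng/mL, 1 h) on captured His6-S6K from the stopped reaction. Kinase step used purified FLAG-tagged human mTOR with test compound in HEPES (pH 7.4)/MnCl2/DTT buffer, 2 h at room temperature (linear 1–6 h), terminated by EDTA/EGTA.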

[3] = PI3 Kinase γ isoform, fluorescence polarization
[4] = PI3 Kinase α isoform, fluorescence polarization
[5] = purified human mTOR enzyme, DELFIA format

IC50 (prostate line LNCap) [nM] | IC50 (PI3K [1]; PI3 Kinase γ) [nM] | IC50 (PI3K [2]; PI3 Kinase α) [nM] | IC50 (Human mTOR (FLAG-TOR)) [nM] | IC50 (PI3K [1]; [3]) [nM] | IC50 (PI3K [2]; [4]) [nM] | IC50 (Human mTOR (FLAG-TOR); [5]) [nM] | Structure (SMILES) | IC50 (breast line MDA468) [nM]
650 | > 10000 | 375 | 2.85 |  |  |  | CNC(=O)Nc1ccc(-c2nc(N3CC4CCC(C3)O4)c3cnn(CCO)c3n2)cc1 [Example 193, 1-{4-[1-(2-hydroxyethyl)-4-(8-oxa-3-azabicyclo[3.2.1]oct-3-yl)-1H-pyrazolo[3,4-d]pyrimidin-6-yl]phenyl}-3-methylurea] | 980
< 1 | 781 | 49 | 0.064 |  |  |  | CC(C)n1ncc2c(N3CC4CCC(C3)O4)nc(-c3ccc(NC(=O)Nc4cccnc4)cc3)nc21 [Example 148, 1-{4-[1-isopropyl-4-(8-oxa-3-azabicyclo[3.2.1]oct-3-yl)-1H-pyrazolo[3,4-d]pyrimidin-6-yl]phenyl}-3-pyridin-3-ylurea] | 9
190 | 11800 | 469 | 0.7 |  |  |  | O=C(Nc1ccc(-c2nc(N3CC4CCC(C3)O4)c3cnn(CCO)c3n2)cc1)Nc1ccc(N2CCOCC2)nc1 [Example 206, 1-{4-[1-(2-hydroxyethyl)-4-(8-oxa-3-azabicyclo[3.2.1]oct-3-yl)-1H-pyrazolo[3,4-d]pyrimidin-6-yl]phenyl}-3-(6-morpholin-4-ylpyridin-3-yl)urea] | 120
18 | 3820 | 188 | 4.85 |  |  |  | CN(C)CCn1ncc2c(N3CC4CCC(C3)O4)nc(-c3ccc(NC(=O)Nc4ccc(N5CCN(C)CC5)cc4)cc3)nc21 [Example 159, 1-(4-{1-[2-(dimethylamino)ethyl]-4-(8-oxa-3-azabicyclo[3.2.1]oct-3-yl)-1H-pyrazolo[3,4-d]pyrimidin-6-yl}phenyl)-3-[4-(4-methylpiperazin-1-yl)phenyl]urea] | 90
1 | > 10000 | 371 | 0.245 |  |  |  | Cn1ncc2c(N3CC4CCC(C3)O4)nc(-c3ccc(NC(=O)Nc4ccc(N5CCOCC5)cc4)cc3)nc21 [Example 238, 1-{4-[1-methyl-4-(8-oxa-3-azabicyclo[3.2.1]oct-3-yl)-1H-pyrazolo[3,4-d]pyrimidin-6-yl]phenyl}-3-(4-morpholin-4-ylphenyl)urea] | 8
4 | 3050 | 542 | 0.505 |  |  |  | CCn1ncc2c(N3CC4CCC(C3)O4)nc(-c3ccc(NC(=O)Nc4ccc(C#N)cc4)cc3)nc21 [Example 190, 1-(4-cyanophenyl)-3-{4-[1-ethyl-4-(8-oxa-3-azabicyclo[3.2.1]oct-3-yl)-1H-pyrazolo[3,4-d]pyrimidin-6-yl]phenyl}urea] | 33
1 | 780 | 56 | 0.15 |  |  |  | O=C(Nc1ccc(CO)cc1)Nc1ccc(-c2nc(N3CC4CCC(C3)O4)c3cnn(CC(F)(F)F)c3n2)cc1 [Example 253, 1-[4-(hydroxymethyl)phenyl]-3-{4-[4-(8-oxa-3-azabicyclo[3.2.1]oct-3-yl)-1-(2,2,2-trifluoroethyl)-1H-pyrazolo[3,4-d]pyrimidin-6-yl]phenyl}urea] | < 1
< 1 |  |  |  | > 10000 | 77 | 0.255 | O=C(Nc1ccc(-c2nc(N3CC4CCC(C3)O4)c3cnn(CC(F)(F)F)c3n2)cc1)Nc1ccc(N2CCNCC2)cc1 [Example 317, 1-{4-[4-(8-oxa-3-azabicyclo[3.2.1]oct-3-yl)-1-(2,2,2-trifluoroethyl)-1H-pyrazolo[3,4-d]pyrimidin-6-yl]phenyl}-3-(4-piperazin-1-ylphenyl)urea] | 1
5 | 1160 | 166 | 0.3 |  |  |  | CCn1ncc2c(N3CC4CCC(C3)O4)nc(-c3ccc(NC(=O)Nc4ccc(OCCO)nc4)cc3)nc21 [Example 282, 1-{4-[1-ethyl-4-(8-oxa-3-azabicyclo[3.2.1]oct-3-yl)-1H-pyrazolo[3,4-d]pyrimidin-6-yl]phenyl}-3-[6-(2-hydroxyethoxy)pyridin-3-yl]urea] | 21

The remaining lines, values behind:

Structure (SMILES) | IC50 (prostate line LNCap) [nM] | IC50 (PI3K [1]; PI3 Kinase γ) [nM] | IC50 (PI3K [2]; PI3 Kinase α) [nM] | IC50 (Human mTOR (FLAG-TOR)) [nM] | IC50 (PI3K [1]; [3]) [nM] | IC50 (PI3K [2]; [4]) [nM] | IC50 (Human mTOR (FLAG-TOR); [5]) [nM] | IC50 (breast line MDA468) [nM]
COC(=O)N1CCC(n2ncc3c(N4CC5CCC(C4)O5)nc(-c4ccc(NC(=O)NCCN(C)C)cc4)nc32)CC1 [Example 169, methyl 4-{6-[4-({[2-(dimethylamino)ethyl]carbamoyl}amino)phenyl]-4-(8-oxa-3-azabicyclo[3.2.1]oct-3-yl)-1H-pyrazolo[3,4-d]pyrimidin-1-yl}piperidine-1-carboxylate] | 500 | 5450 | 422 | 40.5 |  |  |  | 2200
O=C(Nc1ccncc1)Nc1ccc(-c2nc(N3CC4CNCC(C3)O4)c3cnn(CC(F)(F)F)c3n2)cc1 [Example 337, 1-{4-[4-(9-oxa-3,7-diazabicyclo[3.3.1]non-3-yl)-1-(2,2,2-trifluoroethyl)-1H-pyrazolo[3,4-d]pyrimidin-6-yl]phenyl}-3-pyridin-4-ylurea] | 2200 |  |  |  | 7930 | 1790 | 31.5 | 1900
Nc1ccc(-c2nc(N3CC4CCC(C3)O4)c3cnn(CCO)c3n2)cc1 [Example 207, 2-[6-(4-aminophenyl)-4-(8-oxa-3-azabicyclo[3.2.1]oct-3-yl)-1H-pyrazolo[3,4-d]pyrimidin-1-yl]ethanol] | 14000 | > 10000 | 3590 | 145 |  |  |  | 38000
O=C(Nc1ccc(-c2nc(N3CC4CCC(C3)O4)c3cnn(CCO)c3n2)cc1)NC1CC1 [Example 197, 1-cyclopropyl-3-{4-[1-(2-hydroxyethyl)-4-(8-oxa-3-azabicyclo[3.2.1]oct-3-yl)-1H-pyrazolo[3,4-d]pyrimidin-6-yl]phenyl}urea] | 400 | 12000 | 1340 | 2.85 |  |  |  | 1400
CNC(=O)Nc1ccc(-c2nc(N3CC4CCC(C3)O4)c3cnn(C4CCC(NN(C)C)CC4)c3n2)cc1 (stereo not shown) [Example 333, 1-(4-{1-[4-(2,2-dimethylhydrazino)cyclohexyl]-4-(8-oxa-3-azabicyclo[3.2.1]oct-3-yl)-1H-pyrazolo[3,4-d]pyrimidin-6-yl}phenyl)-3-methylurea] | 68 |  |  |  | 4590 | 276 | 0.58 | 380
O=C(Nc1ccc(-c2nc(N3CC4CCC(C3)O4)c3cnn(CCO)c3n2)cc1)OCCO [Example 195, 2-hydroxyethyl {4-[1-(2-hydroxyethyl)-4-(8-oxa-3-azabicyclo[3.2.1]oct-3-yl)-1H-pyrazolo[3,4-d]pyrimidin-6-yl]phenyl}carbamate] | 640 | > 10000 | 1880 | 4.9 |  |  |  | 1500
O=C(Nc1ccc(-c2nc(N3C4CCC3COC4)c3cnn(CC(F)(F)F)c3n2)cc1)Nc1cccnc1 [Example 268, 1-{4-[4-(3-oxa-8-azabicyclo[3.2.1]oct-8-yl)-1-(2,2,2-trifluoroethyl)-1H-pyrazolo[3,4-d]pyrimidin-6-yl]phenyl}-3-pyridin-3-ylurea] | < 1 | 3010 | 227 | 0.2 |  |  |  | 3
CC(C)(C)OC(=O)N1CCC(n2ncc3c(N4CC5CCC(C4)O5)nc(-c4ccc(NC(=O)NC5CC5)cc4)nc32)CC1 [Example 22, tert-butyl 4-[6-{4-[(cyclopropylcarbamoyl)amino]phenyl}-4-(8-oxa-3-azabicyclo[3.2.1]oct-3-yl)-1H-pyrazolo[3,4-d]pyrimidin-1-yl]piperidine-1-carboxylate] | 27 | > 10000 | 3850 | 0.56 |  |  |  | 150
O=C(Nc1ccc(-c2nc(N3CC4CCC(C3)O4)c3cnn(CCF)c3n2)cc1)OCCO [Example 245, 2-hydroxyethyl {4-[1-(2-fluoroethyl)-4-(8-oxa-3-azabicyclo[3.2.1]oct-3-yl)-1H-pyrazolo[3,4-d]pyrimidin-6-yl]phenyl}carbamate] | 130 | > 10000 | 2900 | 1.2 |  |  |  | 900
O=C(Nc1ccc(-c2nc(N3C[C@H]4C[C@@H]3CO4)c3cnn(CC(F)(F)F)c3n2)cc1)Nc1cccnc1 [Example 344, 1-(4-{4-[(1R,4R)-2-oxa-5-azabicyclo[2.2.1]hept-5-yl]-1-(2,2,2-trifluoroethyl)-1H-pyrazolo[3,4-d]pyrimidin-6-yl}phenyl)-3-pyridin-3-ylurea] | 660 |  |  |  | > 10000 | 1940 | 17 | 1000
CCOC(=O)N1CCC(n2ncc3c(N4CC5CCC(C4)O5)nc(-c4ccc(NC(=O)NCCCNC)cc4)nc32)CC1 [Example 38, ethyl 4-{6-[4-({[3-(methylamino)propyl]carbamoyl}amino)phenyl]-4-(8-oxa-3-azabicyclo[3.2.1]oct-3-yl)-1H-pyrazolo[3,4-d]pyrimidin-1-yl}piperidine-1-carboxylate] | 4400 | 11000 | 1760 | 5.3 |  |  |  | 7000
